# Patent US20240398768A1, “METHODS OF TREATING SOLID TUMOR USING HETEROAROMATIC MACROCYCLIC ETHER COMPOUNDS” (Nuvalent, Inc., priority 2021, published 2024)
# Marks after values point to notes of the source that are not given here.
# Assays:
# [1] = target: CYP2D6 (Homo sapiens, UniProt P10635); test: CYP substrate assessment; type: in vitro ADME
# [2] = target: T1, CYP2C8 (Homo sapiens, UniProt P10632); test: CYP substrate assessment; type: in vitro ADME
# T1 sequence (P10632 1-490): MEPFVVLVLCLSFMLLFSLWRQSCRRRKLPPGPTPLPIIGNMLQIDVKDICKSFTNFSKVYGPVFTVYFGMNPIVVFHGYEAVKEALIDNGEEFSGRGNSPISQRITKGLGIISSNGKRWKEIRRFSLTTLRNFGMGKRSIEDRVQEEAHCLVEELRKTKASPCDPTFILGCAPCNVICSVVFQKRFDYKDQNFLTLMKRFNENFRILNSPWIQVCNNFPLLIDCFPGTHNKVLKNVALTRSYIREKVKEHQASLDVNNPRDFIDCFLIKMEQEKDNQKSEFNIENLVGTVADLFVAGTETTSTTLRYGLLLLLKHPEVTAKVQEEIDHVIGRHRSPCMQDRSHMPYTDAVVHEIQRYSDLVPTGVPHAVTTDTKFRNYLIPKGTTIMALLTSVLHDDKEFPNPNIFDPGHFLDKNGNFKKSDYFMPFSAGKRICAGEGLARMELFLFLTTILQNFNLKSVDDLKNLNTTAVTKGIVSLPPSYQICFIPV
# [3] = system: advanced ROS1-positive NSCLC and other advanced ROS1-positive solid tumors; test: Phase 1/2 clinical study: antitumor activity; type: in vivo, human; settings: for tumor change by RECIST 1.1: patient
# [4] = target: T2, Ba/F3 CLIP1-LTK (Homo sapiens, UniProt P29376); test: Cell viability assay for LTK cell line; type: cell-based; settings: 72 hours
# T2 construct: expressed in transfected cells; host or cells: Ba/F3 (RIKEN), pMSCV-puro retrovirus; the other entry of the earlier key: CLIP1 (P30622, CAP-Gly domain-containing linker protein 1)
# Experimental: Generation of Ba/F3 Stable Cell Lines: Genes encoding CLIP1-LTK were synthesized, cloned into the retroviral construct pMSCV-puro (Biovector), and packaged into retroviral particles. The virus was used to infect Ba/F3 cells (RIKEN) at multiplicity of infection=1 or 10 for 1 day. Infected cells were rescued in media (RPMI-1640 with 10% fetal bovine serum and 1% streptomycin and penicillin) supplemented with mouse IL-3 (10 ng/mL) for 2 days, and stable cell lines were selected by IL-3 withdrawal and puromycin (0.8 μg/mL) for 7 days. Transformation of desired genes was confirmed by Sanger sequencing and western blot.
# Cell Proliferation Assay: Stable cells were plated at 1,000 cells/well (40 μL) in a 384-well plate for 1 day. Test compounds (40 nL) were then added in a 3-fold dilution series using the TECAN EVO200 liquid handler and incubated for 72 hours. Plates were equilibrated at room temperature for 15 minutes followed by addition of 40 μL CellTiter-Glo reagent (Promega). Luminescence was measured on a plate reader. Half-maximal inhibitory concentration (IC50) was calculated from percent inhibition and inhibitor concentration using four-parameter logistic regression.
# [5] = Prior Lorlatinib and/or Repotrectinib n = 18
# [6] = ROS1 G2032R Resistance Mutation n = 9
# [7] = ≥2 Prior ROS1 TKI and ≥1 Chemotherapy n = 17
# T2 sequence (P29376 450-864 limits assumed): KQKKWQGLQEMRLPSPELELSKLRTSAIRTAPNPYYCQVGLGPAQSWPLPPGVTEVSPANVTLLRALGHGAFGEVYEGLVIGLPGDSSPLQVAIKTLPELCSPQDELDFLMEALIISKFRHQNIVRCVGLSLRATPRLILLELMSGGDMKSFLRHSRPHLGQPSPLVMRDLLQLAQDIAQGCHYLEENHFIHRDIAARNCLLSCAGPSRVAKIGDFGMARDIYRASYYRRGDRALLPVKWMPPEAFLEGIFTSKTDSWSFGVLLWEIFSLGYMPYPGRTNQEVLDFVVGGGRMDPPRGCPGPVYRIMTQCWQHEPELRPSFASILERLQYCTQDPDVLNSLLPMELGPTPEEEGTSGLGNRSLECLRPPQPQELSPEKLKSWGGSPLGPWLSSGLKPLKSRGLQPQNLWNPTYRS
# Chain of CYP2D6 (P10635 whole entry): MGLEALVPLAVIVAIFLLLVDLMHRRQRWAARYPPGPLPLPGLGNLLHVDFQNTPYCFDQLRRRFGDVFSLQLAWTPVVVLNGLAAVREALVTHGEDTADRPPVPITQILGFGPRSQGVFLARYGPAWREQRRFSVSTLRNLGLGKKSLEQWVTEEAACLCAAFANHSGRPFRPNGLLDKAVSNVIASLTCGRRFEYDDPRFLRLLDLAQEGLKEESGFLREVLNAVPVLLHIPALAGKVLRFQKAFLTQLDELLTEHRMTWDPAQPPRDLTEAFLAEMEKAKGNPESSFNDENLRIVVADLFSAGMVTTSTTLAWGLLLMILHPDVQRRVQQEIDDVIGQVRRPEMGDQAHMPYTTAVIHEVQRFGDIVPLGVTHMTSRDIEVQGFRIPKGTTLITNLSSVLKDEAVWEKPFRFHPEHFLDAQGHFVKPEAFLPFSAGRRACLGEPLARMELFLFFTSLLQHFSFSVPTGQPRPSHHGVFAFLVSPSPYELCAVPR
compound,measurement,setting,value
"CCn1ncc2c1-c1cnc(N)c(c1)O[C@H](C)c1cc(F)ccc1-c1nn(C)nc1C2 [Compound 1, (19R)-3-ethyl-16-fluoro-10,19-dimethyl-20-oxa-3,4,9,10,11,23-hexaazapentacyclo [19.3.1.0^2,^6.0^8,^12.0^13,^18]pentacosa-1 (24),2 (6),4,8,11,13,15,17,21 (25),22-decaen-22-amine]",substrate for CYP2D6,[1],not considered a substrate
same,metabolism contribution from CYP2C8,[2],potential for contributions
same,"Best Response NE, patients",[3]; All Response-Evaluable n = 21,19^c
same,"Best Response PD, patients",[3]; All Response-Evaluable n = 21,2
same,"Best Response PR, patients",[3]; All Response-Evaluable n = 21,10^a
same,"Best Response SD, patients",[3]; All Response-Evaluable n = 21,8
same,ORR (RESIST 1.1),[3]; All Response-Evaluable n = 21,48%
same,"ORR (RESIST 1.1), number of patients",[3]; All Response-Evaluable n = 21,10
same,"Best Response NE, patients",[3]; CNS Disease at Baseline n = 11,0
same,"Best Response PD, patients",[3]; CNS Disease at Baseline n = 11,1
same,"Best Response PR, patients",[3]; CNS Disease at Baseline n = 11,8a
same,"Best Response SD, patients",[3]; CNS Disease at Baseline n = 11,2
same,ORR (RESIST 1.1),[3]; CNS Disease at Baseline n = 11,73%
same,"ORR (RESIST 1.1), number of patients",[3]; CNS Disease at Baseline n = 11,8
same,tumor change (further disease regression),"[3]; EZR-ROS1 G2032R patient, 50 mg, at 16 weeks",−58%
same,"Best Response NE, patients",[3]; [5],1c
same,"Best Response PD, patients",[3]; [5],1
same,"Best Response PR, patients",[3]; [5],9a
same,"Best Response SD, patients",[3]; [5],7
same,ORR (RESIST 1.1),[3]; [5],50%
same,"ORR (RESIST 1.1), number of patients",[3]; [5],9
same,"Best Response NE, patients",[3]; [6],0
same,"Best Response PD, patients",[3]; [6],0
same,"Best Response PR, patients",[3]; [6],7^b
same,"Best Response SD, patients",[3]; [6],2
same,ORR (RESIST 1.1),[3]; [6],78%
same,"ORR (RESIST 1.1), number of patients",[3]; [6],7
same,confirmed partial responses (PR),"[3]; among 12 efficacy-evaluable patients with ROS1+ NSCLC, 25-75 mg QD",6
same,median time to response,"[3]; data as of Sep. 13, 2022",about 3.6 weeks
same,response-evaluable patients continuing treatment,"[3]; data as of Sep. 13, 2022",76%
same,"tumor change, ongoing PR pending confirmation",[3]; one patient with ROS1 D2033N,−40%
same,patients with tumor shrinkage,[3]; patient subgroup with known ROS1 G2032R resistance mutation,100%
same,ORR,"[3]; patient subgroup with known ROS1 G2032R resistance mutation, data as of Sep. 13, 2022",78%
same,tumor change by RECIST 1.1,"[3]; CD74-ROS1 G2032R, 25 mg daily, after 4 weeks",−31%
same,tumor change by RECIST 1.1,"[3]; CD74-ROS1 G2032R, escalated to 75 mg daily, over 5 months, confirmed PR",−60%
same,tumor change by RECIST 1.1,"[3]; EZR-ROS1, 25 mg daily, over 7 months",−48%
same,tumor change by RECIST 1.1,"[3]; EZR-ROS1, no ROS1 resistance mutations, 25 mg daily, week 4",−33%
same,tumor change by RECIST 1.1,"[3]; EZR-ROS1 G2032R, 50 mg daily, approximately 5 months, confirmed PR",−58%
same,tumor change by RECIST 1.1,"[3]; EZR-ROS1 G2032R, 50 mg daily, week 4",−38%
same,intracranial PR (patients),[3]; patients with measurable (>10 mm) CNS metastases,3/3
same,median duration of treatment,"[3]; response-evaluable patients with NSCLC, data as of Sep. 13, 2022",about 3.6 months
same,ORR,"[3]; response-evaluable patients with any CNS disease, data as of Sep. 13, 2022",73%
same,"Best Response NE, patients",[3]; [7],1c
same,"Best Response PD, patients",[3]; [7],1
same,"Best Response PR, patients",[3]; [7],9a
same,"Best Response SD, patients",[3]; [7],6
same,ORR (RESIST 1.1),[3]; [7],53%
same,"ORR (RESIST 1.1), number of patients",[3]; [7],9
same,IC50,[4],9.57 nM
